Legend:
[1] = Dynamic vapor sorption (gravimetric moisture sorption analysis); assay type: physicochemical; details: for hygroscopicity by moisture sorption analysis / moisture absorbed at 60% RH / moisture absorbed at 90% RH: 25° C.; for XRPD of the post moisture sorption sample: dried at 0% RH and 60° C. for 2 hours after sorption; for moisture absorbed at 60% RH / moisture absorbed at 90% RH: moisture sorption
Experimental: Gravimetric moisture sorption experiments were carried out on all materials by first holding the sample at 40% RH and 25° C. until an equilibrium weight was reached or for a maximum of four hours. The sample was then subjected to an isothermal (25° C.) adsorption scan from 40 to 90% RH in steps of 10%. The sample was allowed to equilibrate to an asymptotic weight at each point for a maximum of four hours. Following adsorption, a desorption scan from 85 to 5% RH (at 25° C.) was run in steps of −10%, again allowing a maximum of four hours for equilibration to an asymptotic weight. An adsorption scan was then performed from 0% RH to 40% RH in steps of +10% RH. The sample was then dried for no less than two hours at 60° C. and the resulting solid analyzed by XRPD.
Compound (I), Form F, was further characterized by thermal analysis (DSC and TGA), Karl Fischer titration, and DVS. […] (FIG. 5). […] (FIG. 6). The weight loss observed on TGA corresponds to the melt on DSC. […] The material absorbed 2.0 wt % moisture at 60% RH and 2.4 wt % moisture at 90% RH (FIG. 7). […] Karl Fisher analysis of the sample indicates a moisture content of 0.6 wt %, which was performed when lab humidity was around 20% RH.
Compound (I), Shifted Form F, was further characterized by thermal analysis (DSC and TGA), Karl Fischer titration, and DVS. […] (FIG. 9). […] (FIG. 10). […] The material absorbs 2.4 wt % moisture at 60% RH and 2.9 wt % moisture at 90% RH (FIG. 11). […] The water content by KF is higher than the weight loss detected by TGA. It is possible that some moisture was slowly carried away by nitrogen stream and not reflected in the weight loss attributed to the thermal event. Characterization of shifted Form F was performed when lab humidity was between 50-60% RH.

[2] = Drying study / ambient exposure, form followed by XRPD; assay type: physicochemical
Experimental: To understand a change of Form F to shifted Form F, a drying study was conducted wherein a variable hydrate having shifted Form F was dried overnight under vacuum at 50° C. […] This study confirms that Form F absorbs moisture from the atmosphere and depending upon the relative humidity of the environment either remains Form F or converts to Shifted Form F.
XRPD patterns were collected with a PANalytical CubiX-Pro XRD diffractometer using an incident beam of Cu radiation produced using an Optix long, fine-focus source. An elliptically graded multilayer mirror was used to focus CuKα X-rays (1.54 Å) through the specimen and onto the detector. Prior to the analysis, a silicon specimen (NIST SRM 640d) was analyzed to verify the observed position of the Si 111 peak is consistent with the NIST-certified position. A specimen of the sample was sandwiched between 3-μm-thick films and analyzed in transmission geometry. A beam-stop, short antiscatter extension, and antiscatter knife edge were used to minimize the background generated by air. Soller slits for the incident and diffracted beams were used to minimize broadening from axial divergence. Diffraction patterns were collected using a scanning position-sensitive detector (X'Celerator) located 240 mm from the specimen and Data Collector software v. 2.2b. The tube power was set to 45 kV and 40 mA. […]

hygroscopicity by moisture sorption analysis [1] | XRPD of the post moisture sorption sample [1] | moisture absorbed at 60% RH [1] [wt %] | moisture absorbed at 90% RH [1] [wt %] | form after exposure to ambient conditions ([2]; dried material exposed to ambient conditions for 5 days) | XRPD of the dried solid ([2]; dried overnight under vacuum at 50° C.) | SMILES
moderately hygroscopic | consistent with Form F | 2.0 | 2.4 | converted back to shifted Form F |  | CCOC(C(=O)c1ccc(-c2cc(OC)c(Cl)c(OC)c2)o1)c1ccc(-c2nnc(C)s2)cc1 (stereo not shown) [Form F, 1-(5-(4-chloro-3,5-dimethoxyphenyl)furan-2-yl)-2-ethoxy-2-(4-(5-methyl-1,3,4-thiadiazol-2-yl)phenyl)ethanone]
moderately hygroscopic | consistent with shifted Form F | 2.4 | 2.9 |  | consistent with Form F | CCOC(C(=O)c1ccc(-c2cc(OC)c(Cl)c(OC)c2)o1)c1ccc(-c2nnc(C)s2)cc1 (stereo not shown) [shifted Form F, 1-(5-(4-chloro-3,5-dimethoxyphenyl)furan-2-yl)-2-ethoxy-2-(4-(5-methyl-1,3,4-thiadiazol-2-yl)phenyl)ethanone]
